Here are results for one compound from article PMC6150226, “Inhibition of Human Kallikrein 5 Protease by Triterpenoids from Natural Sources” (Molecules : A Journal of Synthetic Chemistry and Natural …, 2017).

For one data set, the target named is T1, recombinant human KLK5 (Homo sapiens, UniProt Q9Y337).
T1 construct: purchased R & D Systems Inc
T1 sequence (Q9Y337 23-293): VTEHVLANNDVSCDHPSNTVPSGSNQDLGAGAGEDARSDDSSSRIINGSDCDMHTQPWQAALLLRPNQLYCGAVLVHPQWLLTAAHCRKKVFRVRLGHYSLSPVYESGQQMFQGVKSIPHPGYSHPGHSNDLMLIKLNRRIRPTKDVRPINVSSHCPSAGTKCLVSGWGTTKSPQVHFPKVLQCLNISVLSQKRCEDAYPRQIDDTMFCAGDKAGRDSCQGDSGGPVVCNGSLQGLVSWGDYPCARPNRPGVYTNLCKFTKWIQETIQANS
Put plainly: KLK5 enzymatic assay (Boc-V-P-R-AMC fluorogenic substrate). The format is biochemical.

In data set [1] the target is T2, recombinant human pro-chymotrypsin C activated by trypsin (Chymotrypsin C) (Homo sapiens, UniProt Q99895).
T2 construct: purchased R & D Systems Inc
T2 sequence (Q99895 30-268, other chains not shown): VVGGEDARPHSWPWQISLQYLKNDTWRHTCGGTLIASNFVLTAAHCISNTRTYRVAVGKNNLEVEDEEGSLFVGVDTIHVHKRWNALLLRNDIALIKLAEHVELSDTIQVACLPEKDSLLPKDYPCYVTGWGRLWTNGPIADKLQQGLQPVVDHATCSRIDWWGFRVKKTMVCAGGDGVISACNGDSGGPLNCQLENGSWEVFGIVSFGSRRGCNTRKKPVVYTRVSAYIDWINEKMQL
The data set is described as follows: Chymotrypsin C enzymatic assay (Suc-A-A-P-F-AMC). The format is biochemical. The method, then: KLK5, KLK7, trypsin, and chymotrypsin C activities were evaluated according to the following methods supplied by R & D Systems Inc. (Minneapolis, MN, USA). The enzyme activity-dependent increase in the relative fluorescent unit (RFU) was measured, and the percentage of inhibition was calculated based on the formula: (1 − (A − B)/(C − B)) × 100, where A = RFU of test samples with enzymes, B = basal RFU without enzymes, and C = RFU of vehicle controls with enzymes. […] Activated chymotrypsin C (final 34.7 nM) was preincubated with test samples for 5 min, followed by the addition of peptide substrate. After incubating for 60 min, RFU was measured at Ex 380 nm/Em 460 nm.

The target in data set [2] is T3, recombinant human pro-KLK7 activated by thermolysin (Kallikrein 7) (Homo sapiens, UniProt P49862).
T3 construct: purchased R & D Systems Inc
T3 sequence (P49862 30-253): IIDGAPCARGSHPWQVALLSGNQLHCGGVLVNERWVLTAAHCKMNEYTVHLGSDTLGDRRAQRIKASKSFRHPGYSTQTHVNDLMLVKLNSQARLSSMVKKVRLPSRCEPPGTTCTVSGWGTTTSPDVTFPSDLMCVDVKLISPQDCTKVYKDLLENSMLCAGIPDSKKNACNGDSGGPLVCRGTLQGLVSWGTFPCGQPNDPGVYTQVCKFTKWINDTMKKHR
Put plainly: KLK7 enzymatic assay (fluorogenic peptide substrate II). The format is biochemical.

The nature of data set [3]: Plasma pharmacokinetics of triterpenoids in rats after oral Jumihaidokuto (LC-MS/MS). The format is in vivo. Particulars: rat; for Cmax: male, Sprague-Dawley, plasma. The method, then:
Male Sprague–Dawley rats were purchased from Charles River Laboratories (Yokohama, Japan). The plasma pharmacokinetic study was performed according to the “Guidelines for the Care and Use of Laboratory Animals” of Tsumura & Co. Ethical approval for experimental procedures was obtained from the Laboratory Animal Committee of Tsumura & Co. Jumihaidokuto (JHT, Lot No. 332031900) was supplied by Tsumura & Co. (Tokyo, Japan) in the form of a powdered extract. JHT prepared in distilled water was orally administered to 16-h fasted rats at 2 g/10 mL/kg (n = 3). […] Plasma was obtained by centrifugation at 1700 g for 15 min at 4 °C and stored at −80 °C until further processing. […] Twenty-five microliters of methanol, an equal volume of atropine (2 ng/mL; Wako Pure Chemical Industries) as internal standard, and 750 µL of methanol were added to 200 µL of plasma samples, followed by mixing and centrifugation (7000× g, 5 min). For the preparation of the calibration curve, the same volumes of various concentrations of working solution were used instead of methanol. The supernatant was dried at 40 °C under a stream of nitrogen gas. The dried residue was dissolved in 50–60 μL of the initial mobile phase used for liquid chromatography–mass spectrometry with a tandem mass spectrometry system (LC-MS/MS; API4000 or Triple Quad 6500; AB Sciex, Tokyo, Japan) and then a 10- or 20-μL portion was injected into the LC-MS/MS system for the quantification of triterpenoids.

The subject of data set [4] is recombinant human trypsin. The data set is described as follows: Trypsin enzymatic assay (Boc-V-P-R-AMC). The format is biochemical. As to conditions: for IC50: 0.78-100 μM, linear interpolation. On the procedure:
KLK5, KLK7, trypsin, and chymotrypsin C activities were evaluated according to the following methods supplied by R & D Systems Inc. (Minneapolis, MN, USA). The enzyme activity-dependent increase in the relative fluorescent unit (RFU) was measured, and the percentage of inhibition was calculated based on the formula: (1 − (A − B)/(C − B)) × 100, where A = RFU of test samples with enzymes, B = basal RFU without enzymes, and C = RFU of vehicle controls with enzymes.
To measure the trypsin activity, enzymatic reaction was performed at room temperature in 100 mM NaH2PO4 buffer (pH 8.0) containing 0.25 μg/mL recombinant human trypsin (Wako Pure Chemical Industries), 100 μM of Boc-V-P-R-AMC Fluorogenic Peptide Substrate, and 1.1% DMSO at final concentrations. […] was preincubated with test samples for 5 min, followed by the addition of peptide substrate. After incubating for 1 min, RFU was measured at Ex 380 nm/Em 460 nm. Leupeptin hemisulfate (42.1 μM) was used as a positive control.

The test system of the next data set is NHEKs. Put plainly: Cell growth test (XTT-based cell viability assay). More on the design: species or system human. Particulars: ursolic acid 0.5 and 5 μM, tumulosic acid 1 and 10 μM; 24 h; with or without 10 μM cycloheximide. (Tetrazolium dyes change colour on reduction, which living cells bring about.)
The subject of data set [5] is LL-37 production in normal human epidermal keratinocytes (NHEKs). The class given is cell-based.
[6] abbreviates: 0.78-100 μM, linear interpolation.

The structures appear in SMILES notation. Where two headings read alike, the source gives them in different places. Bounds are passed on as bounds.

By inhibition is commonly meant the percentage by which the read-out fell short of the control. By IC50 is commonly meant the concentration that gives 50% inhibition. As usually defined, the Cmax is the peak of the concentration-time curve. For `C=C(CC[C@@H](C(=O)O)[C@H]1[C@H](O)C[C@@]2(C)C3=C(CC[C@]12C)[C@@]1(C)CC[C@H](O)C(C)(C)[C@@H]1CC3)C(C)C` [Tumulosic acid], at recombinant human KLK5 (10 μM test compound, KLK5 8.1 nM, substrate 100 μM, mean ± SEM of triplicate, read-out: Anti-KLK5 Activity % Inhibition), the inhibition at 10 µM was 36 ± 1.9%. Further, the inhibition at 100 µM was found to be 58.7 ± 0.2% on recombinant human KLK5 (100 μM, read-out: Inhibition % at 100 μM, Kallikrein 5); 4% in data set [1] (100 μM); 19.5 ± 1.5% in data set [2]. In addition, the 50% inhibitory concentration (IC50) at recombinant human KLK5 (dose-response experiment of Figure 2, read-out: IC50 anti-KLK5 activity) was 19.3 µM; at recombinant human KLK5 (selectivity experiment of Table 2, 0.78-100 μM, linear interpolation, read-out: IC50 Kallikrein 5), 14.8 µM; in data set [1] (setting [6]), > 100 µM; in data set [2] (setting [6]), > 100 µM; in data set [4] (listed as Tumulosic Acid), 45.3 µM; in data set [4] (listed as tumulosic acid) it was 10.5 µM. Besides, the “Inhibition % at 100 μM, Chymotrypsin C” value in data set [1] (100 μM) is reported as 4.1 ± 5.2%. The Cmax in data set [3] (2 g/kg, single oral Jumihaidokuto 2 g/10 mL/kg) is 116 ng/mL; in data set [3] (single oral Jumihaidokuto 2 g/kg, converted from 116.1 ng/mL), 238 nM. In data set [3] (single oral Jumihaidokuto 2 g/10 mL/kg), the “time of Cmax” value was found to be 2 h. In addition, the “Inhibition % at 100 μM, Trypsin” value in data set [4] (100 μM) was 73.2 ± 1.6%. The “cytotoxic effect on cell proliferation” value in the data set with NHEKs is given as “No cytotoxic effect”. In addition, the “amount of LL-37 in NHEK lysates” value in data set [5] is recorded as “decreased”.
